Experimental data taken from patent publication US12296011B2, “Methods for photodynamic therapy” (Sun Pharmaceutical Industries, Inc., priority 2018, dated 2025).

Assays:
Solubility in water = format: physicochemical
[1] = Open-label maximal use pharmacokinetic study, topical ALA under occlusion (another experiment)
Protocol: (§1) Two open-label, pharmacokinetic studies were carried out to evaluate the potential for systemic exposure of ALA and ALA and protoporphyrin IX (PpIX) when applied topically under occlusion, in a maximal use setting in patients with multiple actinic keratoses (AK) lesions on the upper extremities. In accordance with at least one embodiment, a 20% w/w topical composition of 5-aminolevulinic acid (ALA) was directly applied topically via an applicator to the upper extremities of the patients followed by covering with an occlusive, polyethylene film for a 3 hour incubation period. Light treatment was administered after the incubation period. Each subject received 10 J/cm^2 of visible blue light delivered at 10 mW/cm^2.
(§2) In the first of the two studies, a total of 29 participants were enrolled. The participants were males and non-pregnant females, aged 18 years or older. […] The subjects received one treatment and were followed until week four after treatment. The treatment area, designated at baseline for the duration of the study, was the extensor surface of both distal upper extremities, as defined in the protocol (i.e., the dorsal hands/forearms). In the second of the two studies, a total of 14 participants were enrolled. Males and non-pregnant females, aged 18 years or older, with at least six Grade 1 or Grade 2 AK lesions on one upper extremity treatment area and at least 12 Grade 1 or Grade 2 AK lesions on the other upper extremity treatment area, were eligible for the study.

[2] = Open-label maximal use pharmacokinetic study, topical ALA under occlusion (first study)
Protocol: as §1, §2
(§3) The term “Cmax,” as used herein refers to maximum observed plasma concentrations based on actual values measured following study medication application.

actinic keratoses = assay: Randomized vehicle-controlled photodynamic therapy study, ALA with LDPE occlusion and blue light; format: in vivo, human
Source text: The actinic keratoses were present on the upper extremities, more specifically, on the dorsal surface of the hands and/or the forearm area between the elbow and the base of the fingers. Subjects ranged from 45 to 90 years of age (mean 68 years) and 90% had Fitzpatrick Skin Type I, II or III. Subjects were randomized to treatment in a 1:1 ratio. ALA was applied to lesions on the dorsal surface of one hand or the forearm for each subject, and the dorsal surface of the hand or the forearm was then occluded with low density polyethylene barrier for three hours. Following removal of the low density polyethylene barrier, a 10 J/cm^2 dose of blue light was delivered at 10 mW/cm^2, with treatment repeated after 8 weeks if any lesion(s) remained in the treatment area.
The recurrence rate corresponds to the percentage of subjects with at least one recurrent lesion during the 12 month follow up period following the evaluation at twelve weeks who had previously achieved complete clearance at twelve weeks following treatment.

clinical [3] = details: both, human, plasma
Protocol: as §1, §2, §3

clinical [4] = details: both, human, plasma, topical or ocular, 354 mg
Protocol: as §1, §2

[5] = following a baseline correction
[6] = topical, 3 hour occlusion, not baseline corrected

Compound: Cl.NCC(=O)CCC(=O)O [ALA, 5-amino-4-oxopentanoic acid hydrochloride]
- solubility in water (Solubility in water): highly soluble
- ALA geometric mean maximum plasma concentration [1, 5]: 39 ng/mL
- time of maximum plasma concentration (median) [1, 5]: 2 h
- time of maximum plasma concentration (median) ([1]; not baseline corrected): 2 h
- geometric mean maximum plasma concentration ([1]; topical, not baseline corrected): about 61 ng/ml
- ALA geometric mean maximum plasma concentration [2, 5]: 80 ng/mL
- time of maximum plasma concentration (median) [2, 5]: 2 h
- geometric mean maximum plasma concentration [2, 6]: about 98 ng/mL
- time of maximum plasma concentration (median) [2, 6]: 2 h
- complete clearance (subjects with resolution of the actinic keratoses) (actinic keratoses; twelve weeks after initial treatment, 3 h LDPE occlusion, 10 J/cm^2 blue light, 42 out of 135 subjects): 31%
- recurrence rate (actinic keratoses; twelve-month follow-up of subjects with complete clearance at twelve weeks): 58%
- AUC(0-t) (clinical [3]; topical): 282 ng·h/mL
- AUC(0-t) (clinical [3]; topical or ocular): 577 ng·h/mL
- Cmax (clinical [3]; topical or ocular, 354 mg): < 110 ng/mL
- bioavailability (clinical [4]): ~1%
